Columns and labels:
Assay in all cases: Test B pre-/postemergence plant response
Assay type in all cases: in vivo
[1] = system: cocklebur (Xanthium strumarium); conditions: for Cocklebur plant response rating (0 to 100 scale): 62 g ai/ha, postemergence, 0 is no effect, 100 is complete control; for Plant response rating, Cocklebur: Postemergence
Outline: (§1)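 Seeds were sown in loam soil/sand blend and treated preemergence with compound in non-phytotoxic solvent mixture containing surfactant; postemergence sprays, same formulation, went onto plants 2 to 18 cm (1- to 4-leaf stage) in peat-based planting medium. Greenhouse 13 to 15 days, then visual rating versus untreated controls, 0 (no effect) to 100 (complete control).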

soybean (Glycine max) = conditions: for Soybean plant response rating (0 to 100 scale): 62 g ai/ha, postemergence, 0 is no effect, 100 is complete control; for Plant response rating, Soybean: Postemergence
Outline: as §1

[2] = system: downy bromegrass (Bromus tectorum); conditions: for Bromegrass, Downy plant response rating (0 to 100 scale): 62 g ai/ha, postemergence, 0 is no effect, 100 is complete control; for Plant response rating, Bromegrass, Downy: Postemergence
Outline: as §1

[3] = system: blackgrass (Alopecurus myosuroides); conditions: for Blackgrass plant response rating (0 to 100 scale): 62 g ai/ha, postemergence, 0 is no effect, 100 is complete control; for Plant response rating, Blackgrass: Postemergence
Outline: as §1

[4] = system: yellow nutsedge (Cyperus esculentus); conditions: for Nutsedge, Yellow plant response rating (0 to 100 scale): 62 g ai/ha, postemergence, 0 is no effect, 100 is complete control; for Plant response rating, Nutsedge, Yellow: Postemergence
Outline: as §1

[5] = system: pigweed (Amaranthus retroflexus); conditions: for Pigweed plant response rating (0 to 100 scale): 62 g ai/ha, postemergence, 0 is no effect, 100 is complete control; for Plant response rating, Pigweed: Postemergence
Outline: as §1

[6] = system: Surinam grass (Brachiaria decumbens); conditions: for Surinam Grass plant response rating (0 to 100 scale): 62 g ai/ha, postemergence, 0 is no effect, 100 is complete control; for Plant response rating, Surinam Grass: Postemergence
Outline: as §1

[7] = system: large crabgrass (Digitaria sanguinalis); conditions: for Crabgrass, Large plant response rating (0 to 100 scale): 62 g ai/ha, postemergence, 0 is no effect, 100 is complete control; for Plant response rating, Crabgrass, Large: Postemergence
Outline: as §1

[8] = system: ragweed (common ragweed, Ambrosia elatior); conditions: for Ragweed plant response rating (0 to 100 scale): 62 g ai/ha, postemergence, 0 is no effect, 100 is complete control; for Plant response rating, Ragweed: Postemergence
Outline: as §1

kochia (Kochia scoparia) = conditions: for Kochia plant response rating (0 to 100 scale): 62 g ai/ha, postemergence, 0 is no effect, 100 is complete control; for Plant response rating, Kochia: Postemergence
Outline: as §1

[9] = system: velvetleaf (Abutilon theophrasti); conditions: for Velvetleaf plant response rating (0 to 100 scale): 62 g ai/ha, postemergence, 0 is no effect, 100 is complete control; for Plant response rating, Velvetleaf: Postemergence
Outline: as §1

corn (Zea mays) = conditions: for Corn plant response rating (0 to 100 scale): 62 g ai/ha, postemergence, 0 is no effect, 100 is complete control; for Plant response rating, Corn: Postemergence
Outline: as §1

wild oat (Avena fatua) = conditions: for Oat, Wild plant response rating (0 to 100 scale): 62 g ai/ha, postemergence, 0 is no effect, 100 is complete control; for Plant response rating, Oat, Wild: Postemergence
Outline: as §1

[10] = system: bermudagrass (Cynodon dactylon); conditions: for Bermudagrass plant response rating (0 to 100 scale): 62 g ai/ha, postemergence, 0 is no effect, 100 is complete control; for Plant response rating, Bermudagrass: Postemergence
Outline: as §1

[11] = system: Italian ryegrass (Lolium multiflorum); conditions: for Ryegrass, Italian plant response rating (0 to 100 scale): 62 g ai/ha, postemergence, 0 is no effect, 100 is complete control; for Plant response rating, Ryegrass, Italian: Postemergence
Outline: as §1

[12] = system: green foxtail (Setaria viridis); conditions: for Foxtail, Green plant response rating (0 to 100 scale): 62 g ai/ha, postemergence, 0 is no effect, 100 is complete control; for Plant response rating, Foxtail, Green: Postemergence
Outline: as §1

[13] = system: lambsquarters (Chenopodium album); conditions: for Lambsquarters plant response rating (0 to 100 scale): 62 g ai/ha, postemergence, 0 is no effect, 100 is complete control; for Plant response rating, Lambsquarters: Postemergence
Outline: as §1

[14] = 31 g ai/ha, 0 to 100 scale (0 no effect, 100 complete control)
[15] = 125 g ai/ha, scale 0 to 100 (0 no effect, 100 complete control)
[16] = 250 g ai/ha, scale 0 to 100 (0 no effect, 100 complete control)
[17] = 250 g ai/ha, scale 0 to 100 (0 no effect, 100 complete control), 13 to 15 days

Structure (SMILES): COCCCn1c(-c2cccc(F)c2)ncc(C(=O)C2=C(O)CCCC2=O)c1=O [Compound 126]
- Cocklebur plant response rating (0 to 100 scale) ([1]; 13 to 15 days): 65
- Plant response rating, Cocklebur [1, 14]: 15
- Plant response rating, Cocklebur [1, 15]: 80
- Plant response rating, Cocklebur [1, 16]: 98
- Soybean plant response rating (0 to 100 scale) (soybean (Glycine max); 13 to 15 days): 75
- Plant response rating, Soybean (soybean (Glycine max); [14]): 70
- Plant response rating, Soybean (soybean (Glycine max); [15]): 85
- Plant response rating, Soybean (soybean (Glycine max); [16]): 98
- Bromegrass, Downy plant response rating (0 to 100 scale) ([2]; 13 to 15 days): 15
- Plant response rating, Bromegrass, Downy [2, 14]: 5
- Plant response rating, Bromegrass, Downy [2, 15]: 30
- Plant response rating, Bromegrass, Downy [2, 16]: 40
- Blackgrass plant response rating (0 to 100 scale) ([3]; 13 to 15 days): 25
- Plant response rating, Blackgrass [3, 14]: 5
- Plant response rating, Blackgrass [3, 15]: 30
- Plant response rating, Blackgrass [3, 16]: 45
- Nutsedge, Yellow plant response rating (0 to 100 scale) ([4]; 13 to 15 days): 75
- Plant response rating, Nutsedge, Yellow [4, 14]: 65
- Plant response rating, Nutsedge, Yellow [4, 15]: 80
- Plant response rating, Nutsedge, Yellow [4, 16]: 80
- Pigweed plant response rating (0 to 100 scale) ([5]; 13 to 15 days): 95
- Plant response rating, Pigweed [5, 14]: 75
- Plant response rating, Pigweed [5, 15]: 98
- Plant response rating, Pigweed [5, 16]: 98
- Surinam Grass plant response rating (0 to 100 scale) ([6]; 13 to 15 days): 80
- Plant response rating, Surinam Grass [6, 14]: 70
- Plant response rating, Surinam Grass [6, 15]: 85
- Plant response rating, Surinam Grass [6, 16]: 98
- Crabgrass, Large plant response rating (0 to 100 scale) ([7]; 13 to 15 days): 80
- Plant response rating, Crabgrass, Large [7, 14]: 75
- Plant response rating, Crabgrass, Large [7, 15]: 85
- Plant response rating, Crabgrass, Large [7, 16]: 90
- Ragweed plant response rating (0 to 100 scale) ([8]; 13 to 15 days): 75
- Plant response rating, Ragweed [8, 14]: 55
- Plant response rating, Ragweed [8, 15]: 85
- Plant response rating, Ragweed [8, 16]: 90
- Kochia plant response rating (0 to 100 scale) (kochia (Kochia scoparia); 13 to 15 days): 25
- Plant response rating, Kochia (kochia (Kochia scoparia); [14]): 10
- Plant response rating, Kochia (kochia (Kochia scoparia); [15]): 25
- Plant response rating, Kochia (kochia (Kochia scoparia); [16]): 85
- Velvetleaf plant response rating (0 to 100 scale) ([9]; 13 to 15 days): 90
- Plant response rating, Velvetleaf [9, 14]: 80
- Plant response rating, Velvetleaf [9, 15]: 95
- Plant response rating, Velvetleaf [9, 16]: 98
- Corn plant response rating (0 to 100 scale) (corn (Zea mays); 13 to 15 days): 30
- Plant response rating, Corn (corn (Zea mays); [14]): 10
- Plant response rating, Corn (corn (Zea mays); [15]): 55
- Plant response rating, Corn (corn (Zea mays); [16]): 80
- Oat, Wild plant response rating (0 to 100 scale) (wild oat (Avena fatua); 13 to 15 days): 10
- Plant response rating, Oat, Wild (wild oat (Avena fatua); [14]): 5
- Plant response rating, Oat, Wild (wild oat (Avena fatua); [15]): 35
- Plant response rating, Oat, Wild (wild oat (Avena fatua); [16]): 50
- Bermudagrass plant response rating (0 to 100 scale) ([10]; 13 to 15 days): 85
- Plant response rating, Bermudagrass [10, 14]: 75
- Plant response rating, Bermudagrass [10, 15]: 90
- Plant response rating, Bermudagrass [10, 16]: 95
- Ryegrass, Italian plant response rating (0 to 100 scale) ([11]; 13 to 15 days): 5
- Plant response rating, Ryegrass, Italian [11, 14]: 0
- Plant response rating, Ryegrass, Italian [11, 15]: 5
- Plant response rating, Ryegrass, Italian [11, 16]: 50
- Foxtail, Green plant response rating (0 to 100 scale) ([12]; 13 to 15 days): 80
- Plant response rating, Foxtail, Green [12, 14]: 50
- Plant response rating, Foxtail, Green [12, 15]: 90
- Plant response rating, Foxtail, Green [12, 16]: 95
- Lambsquarters plant response rating (0 to 100 scale) ([13]; 13 to 15 days): 85
- Plant response rating, Lambsquarters [13, 14]: 70
- Plant response rating, Lambsquarters [13, 15]: 85
- Plant response rating, Lambsquarters [13, 16]: 98

Structure (SMILES): CCCn1c(-c2cccc(F)c2)ncc(C(=O)C2=C(O)CCCC2=O)c1=O [Compound 127]
- Cocklebur plant response rating (0 to 100 scale) ([1]; 13 to 15 days): 95
- Plant response rating, Cocklebur [1, 14]: 75
- Plant response rating, Cocklebur [1, 15]: 95
- Plant response rating, Cocklebur [1, 17]: 100
- Soybean plant response rating (0 to 100 scale) (soybean (Glycine max); 13 to 15 days): 98
- Plant response rating, Soybean (soybean (Glycine max); [14]): 95
- Plant response rating, Soybean (soybean (Glycine max); [15]): 98
- Plant response rating, Soybean (soybean (Glycine max); [17]): 98
- Bromegrass, Downy plant response rating (0 to 100 scale) ([2]; 13 to 15 days): 10
- Plant response rating, Bromegrass, Downy [2, 14]: 5
- Plant response rating, Bromegrass, Downy [2, 15]: 20
- Plant response rating, Bromegrass, Downy [2, 17]: 40
- Blackgrass plant response rating (0 to 100 scale) ([3]; 13 to 15 days): 20
- Plant response rating, Blackgrass [3, 14]: 5
- Plant response rating, Blackgrass [3, 15]: 25
- Plant response rating, Blackgrass [3, 17]: 40
- Nutsedge, Yellow plant response rating (0 to 100 scale) ([4]; 13 to 15 days): 70
- Plant response rating, Nutsedge, Yellow [4, 14]: 65
- Plant response rating, Nutsedge, Yellow [4, 15]: 75
- Plant response rating, Nutsedge, Yellow [4, 17]: 80
- Pigweed plant response rating (0 to 100 scale) ([5]; 13 to 15 days): 95
- Plant response rating, Pigweed [5, 14]: 80
- Plant response rating, Pigweed [5, 15]: 95
- Plant response rating, Pigweed [5, 17]: 100
- Surinam Grass plant response rating (0 to 100 scale) ([6]; 13 to 15 days): 75
- Plant response rating, Surinam Grass [6, 14]: 75
- Plant response rating, Surinam Grass [6, 15]: 85
- Plant response rating, Surinam Grass [6, 17]: 90
- Crabgrass, Large plant response rating (0 to 100 scale) ([7]; 13 to 15 days): 85
- Plant response rating, Crabgrass, Large [7, 14]: 80
- Plant response rating, Crabgrass, Large [7, 15]: 90
- Plant response rating, Crabgrass, Large [7, 17]: 95
- Ragweed plant response rating (0 to 100 scale) ([8]; 13 to 15 days): 85
- Plant response rating, Ragweed [8, 14]: 70
- Plant response rating, Ragweed [8, 15]: 98
- Plant response rating, Ragweed [8, 17]: 98
- Kochia plant response rating (0 to 100 scale) (kochia (Kochia scoparia); 13 to 15 days): 98
- Plant response rating, Kochia (kochia (Kochia scoparia); [14]): 45
- Plant response rating, Kochia (kochia (Kochia scoparia); [15]): 100
- Plant response rating, Kochia (kochia (Kochia scoparia); [17]): 100
- Velvetleaf plant response rating (0 to 100 scale) ([9]; 13 to 15 days): 95
- Plant response rating, Velvetleaf [9, 14]: 90
- Plant response rating, Velvetleaf [9, 15]: 100
- Plant response rating, Velvetleaf [9, 17]: 100
- Corn plant response rating (0 to 100 scale) (corn (Zea mays); 13 to 15 days): 25
- Plant response rating, Corn (corn (Zea mays); [14]): 5
- Plant response rating, Corn (corn (Zea mays); [15]): 25
- Plant response rating, Corn (corn (Zea mays); [17]): 75
- Oat, Wild plant response rating (0 to 100 scale) (wild oat (Avena fatua); 13 to 15 days): 10
- Plant response rating, Oat, Wild (wild oat (Avena fatua); [14]): 5
- Plant response rating, Oat, Wild (wild oat (Avena fatua); [15]): 25
- Plant response rating, Oat, Wild (wild oat (Avena fatua); [17]): 60
- Bermudagrass plant response rating (0 to 100 scale) ([10]; 13 to 15 days): 95
- Plant response rating, Bermudagrass [10, 14]: 95
- Plant response rating, Bermudagrass [10, 15]: 98
- Plant response rating, Bermudagrass [10, 17]: 98
- Ryegrass, Italian plant response rating (0 to 100 scale) ([11]; 13 to 15 days): 5
- Plant response rating, Ryegrass, Italian [11, 14]: 0
- Plant response rating, Ryegrass, Italian [11, 15]: 5
- Plant response rating, Ryegrass, Italian [11, 17]: 30
- Foxtail, Green plant response rating (0 to 100 scale) ([12]; 13 to 15 days): 85
- Plant response rating, Foxtail, Green [12, 14]: 75
- Plant response rating, Foxtail, Green [12, 15]: 90
- Plant response rating, Foxtail, Green [12, 17]: 95
- Lambsquarters plant response rating (0 to 100 scale) ([13]; 13 to 15 days): 85
- Plant response rating, Lambsquarters [13, 14]: 75
- Plant response rating, Lambsquarters [13, 15]: 90
- Plant response rating, Lambsquarters [13, 17]: 95

From US8952024B2, “Herbicidal pyrimidone derivatives” (E I du Pont de Nemours and Company, priority 2009, dated 2015)
